According to ChEMBL document CHEMBL3046063, “Synthesis and antimicrobial activity of 5-chloroindoline-2,3-dione derivatives” (2012):

Tests used:
Type in all cases: functional
[1] = test system: Aspergillus niger; test: Antimicrobial activity against Aspergillus niger ATCC 9142 after 24 hr by broth dilution method; conditions: ATCC 9142, 24 h
[2] = test system: Fusarium solani; test: Antimicrobial activity against Fusarium solani ATCC 38136 after 24 hr by broth dilution method; conditions: ATCC 38136, 24 h
[3] = test system: Rhizoctonia solani; test: Antimicrobial activity against Rhizoctonia solani ATCC 76131 after 24 hr by broth dilution method; conditions: ATCC 76131, 24 h
[4] = test system: Micrococcus luteus; test: Antimicrobial activity against Micrococcus luteus ATCC 4698 after 24 hr by broth dilution method; conditions: ATCC 4698, 24 h
[5] = test system: Proteus vulgaris; test: Antimicrobial activity against Proteus vulgaris ATCC 13315 after 24 hr by broth dilution method; conditions: ATCC 13315, 24 h
[6] = test system: Aspergillus awamori; test: Antimicrobial activity against Aspergillus awamori ATCC 22342 after 24 hr by broth dilution method; conditions: ATCC 22342, 24 h
[7] = test system: Aspergillus fumigatus; test: Antimicrobial activity against Aspergillus fumigatus after 24 hr by broth dilution method
[8] = test system: Trichophyton longifusum; test: Antimicrobial activity against Trichophyton longifusum ATCC 22397 after 24 hr by broth dilution method; conditions: ATCC 22397, 24 h
[9] = test system: Bacillus cereus; test: Antimicrobial activity against Bacillus cereus ATCC 11778 after 24 hr by broth dilution method; conditions: ATCC 11778, 24 h
[10] = test system: Escherichia coli; test: Antimicrobial activity against Escherichia coli ATCC 25922 after 24 hr by broth dilution method; conditions: ATCC 25922, 24 h
[11] = test system: Staphylococcus epidermidis; test: Antimicrobial activity against Staphylococcus epidermidis ATCC 12228 after 24 hr by broth dilution method; conditions: ATCC 12228, 24 h
[12] = test system: Staphylococcus hominis; test: Antimicrobial activity against Staphylococcus hominis ATCC 27844 after 24 hr by broth dilution method; conditions: ATCC 27844, 24 h
[13] = test system: Alternaria alternata; test: Antimicrobial activity against Alternaria alternata ATCC 66868 after 24 hr by broth dilution method; conditions: ATCC 66868, 24 h
[14] = test system: Bacillus pumilus; test: Antimicrobial activity against Bacillus pumilus ATCC 14884 after 24 hr by broth dilution method; conditions: ATCC 14884, 24 h
[15] = test system: Bacillus spizizenii; test: Antimicrobial activity against Bacillus subtilis subsp. spizizenii ATCC 6633 after 24 hr by broth dilution method; conditions: ATCC 6633, 24 h
[16] = test system: Staphylococcus aureus; test: Antimicrobial activity against Staphylococcus aureus ATCC 25923 after 24 hr by broth dilution method; conditions: ATCC 25923, 24 h
[17] = test system: Salmonella typhi; test: Antimicrobial activity against Salmonella enterica subsp. enterica serovar Typhi ATCC 19430 after 24 hr by broth dilution method; conditions: ATCC 19430, 24 h
[18] = test system: Trichoderma viride; test: Antimicrobial activity against Hypocrea rufa ATCC 52440 after 24 hr by broth dilution method; conditions: ATCC 52440, 24 h
[19] = test system: Microsporum canis; test: Antimicrobial activity against Arthroderma otae ATCC 11622 after 24 hr by broth dilution method; conditions: ATCC 11622, 24 h
[20] = test system: Pseudomonas aeruginosa; test: Antimicrobial activity against Pseudomonas aeruginosa ATCC 10145 after 24 hr by broth dilution method; conditions: ATCC 10145, 24 h
[21] = test system: Klebsiella pneumoniae; test: Antimicrobial activity against Klebsiella pneumoniae ATCC 13883 after 24 hr by broth dilution method; conditions: ATCC 13883, 24 h
[22] = test system: Proteus mirabilis; test: Antimicrobial activity against Proteus mirabilis ATCC 49565 after 24 hr by broth dilution method; conditions: ATCC 49565, 24 h
[23] = test system: Candida albicans; test: Antimicrobial activity against Candida albicans ATCC 10231 after 24 hr by broth dilution method; conditions: ATCC 10231, 24 h
[24] = test system: Aspergillus flavus; test: Antimicrobial activity against Aspergillus flavus ATCC 15517 after 24 hr by broth dilution method; conditions: ATCC 15517, 24 h

Measured: MIC

O=C1Nc2ccc(Cl)cc2/C1=N/N1C(=O)C(Cl)C1c1ccc([N+](=O)[O-])cc1 (stereo not given)
4.68 µg/mL: [1] | [13] | [19] | [23] | [24]
18.8 µg/mL: [10] | [11] | [12] | [16]
9.37 µg/mL: [2] | [3] | [4] | [5] | [6] | [7] | [8] | [9] | [14] | [15] | [17] | [18] | [20] | [21] | [22]

O=C1Nc2ccc(Cl)cc2/C1=N/N1C(=O)C(Cl)C1c1ccccc1Cl (stereo not given)
75 µg/mL: [19] | [23]
300 µg/mL: [9] | [12] | [14] | [16] | [17] | [20] | [21] | [22]
150 µg/mL: [1] | [2] | [3] | [4] | [5] | [6] | [7] | [8] | [10] | [11] | [13] | [15] | [18] | [24]

O=C1Nc2ccc(Cl)cc2/C1=N/N1C(=O)C(Cl)C1c1ccc(Cl)cc1 (stereo not given)
18.8 µg/mL: [4] | [9] | [10] | [11] | [16] | [20] | [22]
4.68 µg/mL: [1] | [2] | [6] | [7] | [8] | [18] | [23]
9.37 µg/mL: [3] | [5] | [12] | [13] | [14] | [15] | [17] | [19] | [21] | [24]

COc1cccc(C2C(Cl)C(=O)N2/N=C2\C(=O)Nc3ccc(Cl)cc32)c1 (stereo not given)
75 µg/mL: [5] | [10] | [12] | [14] | [15] | [16] | [17] | [22]
18.8 µg/mL: [3] | [7] | [8] | [13] | [23] | [24]
37.5 µg/mL: [1] | [2] | [4] | [6] | [9] | [11] | [18] | [19] | [20] | [21]

O=C(O)c1cn(C2CC2)c2cc(N3CCNCC3)c(F)cc2c1=O [CIPROFLOXACIN]
4.7 µg/mL: [4] | [5] | [9] | [10] | [11] | [12] | [14] | [15] | [16] | [17] | [20] | [21] | [22]

Clc1ccccc1C(c1ccccc1)(c1ccccc1)n1ccnc1 [CLOTRIMAZOLE]
1.17 µg/mL: [2] | [3] | [18] | [19]
2.34 µg/mL: [1] | [6] | [7] | [8] | [13] | [24]
0.58 µg/mL: [23]
